{"source": "patent US8618151B2", "about": "“Inhibitors of HCV NS5A” (Presidio Pharmaceuticals, Inc., priority 2008, dated 2013)"}
{"test_system": "HCV genotype 1b replicon", "experiment": "HCV replicon assay (1b_Huh-Luc/Neo-ET cell line, luciferase readout)", "assay_type": "cell-based", "conditions": "Hepatitis C virus, Huh-7, 72 h, read-out: Inhibition of HCV genotype 1b", "protocol": "Biological activity of the compounds of the invention was determined using an HCV replicon assay. The 1b_Huh-Luc/Neo-ET cell line persistently expressing a bicistronic genotype 1b replicon in Huh 7 cells was obtained from ReBLikon GMBH. This cell line was used to test compound inhibition using luciferase enzyme activity readout as a measurement of compound inhibition of replicon levels.\nOn Day 1 (the day after plating), each compound is added in triplicate to the cells. Plates incubated for 72 h prior to running the luciferase assay. Enzyme activity was measured using a Bright-Glo Kit (cat. number E2620) manufactured by Promega Corporation. The following equation was used to generate a percent control value for each compound. % Control=(Average Compound Value/Average Control)*100\nThe EC50 value was determined using GraphPad Prism and the following equation: Y=Bottom+(Top−Bottom)/1+10^((Log IC50−X)*HillSlope))\nEC50 values of compounds are repeated several times in the replicon assay.", "units": {"EC50": "nM"}}
{"smiles": "CNC(=O)N[C@@H](C(=O)N1CCC[C@H]1c1nc(-c2ccc3cc(-c4ccc(-c5cnc([C@@H]6CCCN6C(=O)[C@@H](NC(=O)OC)C(C)C)[nH]5)cc4)ccc3c2)c[nH]1)c1ccccc1", "note": "[14s]", "EC50": "< 1"}
{"smiles": "COC(=O)N[C@H](C(=O)N1CCC[C@H]1c1ncc(-c2ccc(-c3ccc4cc(-c5c[nH]c([C@@H]6CCCN6C(=O)[C@@H](c6ccccc6)N6CCCC6)n5)ccc4c3)cc2)[nH]1)C(C)C", "note": "[Compound 9]", "EC50": "< 1"}
{"smiles": "CNC(=O)N[C@@H](C(=O)N1CCC[C@H]1c1ncc(-c2ccc(-c3ccc4cc(-c5c[nH]c([C@@H]6CCCN6C(=O)[C@@H](NC(=O)OC)C(C)C)n5)ccc4c3)cc2)[nH]1)c1ccccc1", "note": "[Compound 18]", "EC50": "< 1"}
{"smiles": "COC(=O)N[C@H](C(=O)N1CCC[C@H]1c1nc(-c2ccc3cc(-c4ccc(-c5cnc([C@@H]6CCCN6C(=O)[C@@H](NC(=O)OC)C(C)C)[nH]5)cc4)ccc3c2)c[nH]1)C(C)C", "note": "[compound 1]", "EC50": "< 1"}
{"smiles": "COC(=O)N[C@@H](C(=O)N1CCC[C@H]1c1nc(-c2ccc3cc(-c4ccc(-c5cnc([C@@H]6CCCN6C(=O)[C@H](NC(=O)OC)C(C)C)[nH]5)cc4)ccc3c2)c[nH]1)C(C)C", "note": "[compound 2]", "EC50": "< 1"}
{"smiles": "COC(=O)N[C@H](C(=O)N1CCC[C@H]1c1nc(-c2ccc3cc(-c4ccc(-c5cnc([C@@H]6CCCN6C(=O)[C@@H](NC(=O)OC)[C@@H](C)OC)[nH]5)cc4)ccc3c2)c[nH]1)[C@@H](C)OC", "note": "[compound 3]", "EC50": "< 1"}
{"smiles": "COC(=O)N[C@H](C(=O)N1CCC[C@H]1c1nc(-c2ccc3cc(-c4ccc(-c5cnc([C@@H]6CCCN6C(=O)[C@@H](NC(=O)OC)[C@@H](C)O)[nH]5)cc4)ccc3c2)c[nH]1)[C@@H](C)O", "note": "[compound 4]", "EC50": "< 1"}
{"smiles": "COC(=O)N[C@H](C(=O)N1CCC[C@H]1c1nc(-c2ccc3cc(-c4ccc(-c5cnc([C@@H]6CCCN6C(=O)[C@@H](c6ccccc6)N(C)C)[nH]5)cc4)ccc3c2)c[nH]1)C(C)C", "note": "[compound 5]", "EC50": "< 1"}
{"smiles": "COC(=O)N[C@H](C(=O)N1CCC[C@H]1c1ncc(-c2ccc(-c3ccc4cc(-c5c[nH]c([C@@H]6CCCN6C(=O)[C@@H](c6ccccc6)N(C)C)n5)ccc4c3)cc2)[nH]1)C(C)C", "note": "[compound 6]", "EC50": "< 1"}
{"smiles": "COC(=O)N[C@H](C(=O)N1CCC[C@H]1c1ncc(-c2ccc(-c3ccc4cc(-c5c[nH]c([C@@H]6CCCN6C(=O)[C@H](NC(=O)OC)c6ccccc6)n5)ccc4c3)cc2)[nH]1)C(C)C", "note": "[compound 7]", "EC50": "< 1"}
{"smiles": "COC(=O)N[C@H](C(=O)N1CCC[C@H]1c1nc(-c2ccc3cc(-c4ccc(-c5cnc([C@@H]6CCCN6C(=O)[C@H](NC(=O)OC)c6ccccc6)[nH]5)cc4)ccc3c2)c[nH]1)C(C)C", "note": "[compound 8]", "EC50": "< 1"}
{"smiles": "COC(=O)N[C@H](C(=O)N1CCC[C@H]1c1nc(-c2ccc3cc(-c4ccc(-c5cnc([C@@H]6CCCN6C(=O)[C@@H](c6ccccc6)N6CCCC6)[nH]5)cc4)ccc3c2)c[nH]1)C(C)C", "note": "[compound 10]", "EC50": "< 1"}
{"smiles": "COC(=O)N[C@H](C(=O)N1CCC[C@H]1c1nc(-c2ccc3nc(-c4ccc(-c5cnc([C@@H]6CCCN6C(=O)[C@@H](NC(=O)OC)C(C)C)[nH]5)cc4)cnc3c2)c[nH]1)C(C)C", "note": "[compound 11]", "EC50": "< 1"}
{"smiles": "COC(=O)N[C@H](C(=O)N1CCC[C@H]1c1ncc(-c2ccc(-c3cnc4ccc(-c5cnc([C@@H]6CCCN6C(=O)[C@@H](NC(=O)OC)C(C)C)[nH]5)cc4n3)cc2)[nH]1)C(C)C", "note": "[compound 12]", "EC50": "1 to 9.9"}
{"smiles": "COC(=O)N[C@H](C(=O)N1CCC[C@H]1c1nc(-c2ccc3cc(-c4ccc(-c5cnc([C@@H]6CCCN6C(=O)[C@@H](NC(=O)OC)C(C)C)[nH]5)cn4)ccc3c2)c[nH]1)C(C)C", "note": "[compound 13]", "EC50": "< 1"}
{"smiles": "COC(=O)N[C@H](C(=O)N1CCC[C@H]1c1ncc(-c2ccc(-c3ccc4cc(-c5c[nH]c([C@@H]6CCCN6C(=O)[C@H](NC(=O)N6CC[C@H](O)C6)c6ccccc6)n5)ccc4c3)cc2)[nH]1)C(C)C", "note": "[compound 15]", "EC50": "< 1"}
{"smiles": "COC(=O)N[C@H](C(=O)N1CCC[C@H]1c1nc(-c2ccc3cc(-c4ccc(-c5cnc([C@@H]6CCCN6C(=O)[C@H](NC(=O)N6CC[C@H](O)C6)c6ccccc6)[nH]5)cc4)ccc3c2)c[nH]1)C(C)C", "note": "[compound 16]", "EC50": "< 1"}
{"smiles": "COC(=O)N[C@H](C(=O)N1CCC[C@H]1c1nc(-c2ccc3nc(-c4ccc(-c5cnc([C@@H]6CCCN6C(=O)[C@@H](NC(=O)OC)C(C)C)[nH]5)cc4)ncc3c2)c[nH]1)C(C)C", "note": "[compound 17]", "EC50": "< 1"}
{"smiles": "COC(=O)N[C@H](C(=O)N1CCC[C@H]1c1nc(-c2cnc3cc(-c4ccc(-c5cnc([C@@H]6CCCN6C(=O)[C@@H](NC(=O)OC)C(C)C)[nH]5)cc4)ccc3c2)c[nH]1)C(C)C", "note": "[compound 19]", "EC50": "< 1"}
{"smiles": "COC(=O)N[C@H](C(=O)N1CCC[C@H]1c1ncc(-c2ccc(-c3cccc4c(-c5cnc([C@@H]6CCCN6C(=O)[C@@H](NC(=O)OC)C(C)C)[nH]5)cccc34)cc2)[nH]1)C(C)C", "note": "[compound 20]", "EC50": "< 1"}
{"smiles": "COC(=O)N[C@H](C(=O)N1CCC[C@H]1c1nc(-c2ccc3cc(-c4ccc(-c5cnc([C@@H]6CCCN6C(=O)[C@@H](NC(=O)OC)C(C)C)[nH]5)cc4)cnc3c2)c[nH]1)C(C)C", "note": "[compound 21]", "EC50": "< 1"}
{"smiles": "COC(=O)N[C@H](C(=O)N1CCC[C@H]1c1nc(-c2ccc3cc(-c4ccc(-c5cnc([C@@H]6CCCN6C(=O)[C@@H](NC(=O)OC)C(C)C)[nH]5)cc4)ncc3c2)c[nH]1)C(C)C", "note": "[compound 22]", "EC50": "< 1"}
{"smiles": "COC(=O)N[C@H](C(=O)N1CCC[C@H]1c1ncc(-c2ccc(-c3ccc4cc(-c5c[nH]c([C@@H]6CCCN6C(=O)[C@H](NC(=O)NC(C)(C)C)c6ccccc6)n5)ccc4c3)cc2)[nH]1)C(C)C", "note": "[compound 23]", "EC50": "< 1"}
{"smiles": "COC(=O)N[C@H](C(=O)N1CCC[C@H]1c1nc(-c2ccc3cc(-c4ccc(-c5cnc([C@@H]6CCCN6C(=O)[C@H](NC(=O)NC6CC6)c6ccccc6)[nH]5)cc4)ccc3c2)c[nH]1)C(C)C", "note": "[compound 24]", "EC50": "< 1"}
{"smiles": "COC(=O)NC(C(=O)N1CCC[C@H]1c1nc(-c2ccc3cc(-c4ccc(-c5cnc([C@@H]6CCCN6C(=O)[C@H](NC(=O)NC(C)(C)C)c6ccccc6)[nH]5)cc4)ccc3c2)c[nH]1)C(C)C", "note": "(stereo partly drawn) [compound 25]", "EC50": "< 1"}
{"smiles": "COC(=O)N[C@H](C(=O)N1CCC[C@H]1c1nc(-c2ccc3nc(-c4ccc(-c5cnc([C@@H]6CCCN6C(=O)[C@H](NC(=O)OC)c6ccccc6)[nH]5)cc4)ccc3c2)c[nH]1)C(C)C", "note": "[compound 26]", "EC50": "< 1"}
{"smiles": "CCNC(=O)N[C@@H](C(=O)N1CCC[C@H]1c1ncc(-c2ccc(-c3ccc4cc(-c5c[nH]c([C@@H]6CCCN6C(=O)[C@@H](NC(=O)OC)C(C)C)n5)ccc4c3)cc2)[nH]1)c1ccccc1", "note": "[compound 27]", "EC50": "< 1"}
{"smiles": "CCNC(=O)N[C@@H](C(=O)N1CCC[C@H]1c1nc(-c2ccc3cc(-c4ccc(-c5cnc([C@@H]6CCCN6C(=O)[C@@H](NC(=O)OC)C(C)C)[nH]5)cc4)ccc3c2)c[nH]1)c1ccccc1", "note": "[compound 28]", "EC50": "< 1"}
{"smiles": "COC(=O)N[C@H](C(=O)N1CCC[C@H]1c1ncc(-c2ccc(-c3ccc4cc(-c5c[nH]c([C@@H]6CCCN6C(=O)[C@H](NC(=O)NC6CC6)c6ccccc6)n5)ccc4c3)cc2)[nH]1)C(C)C", "note": "[compound 29]", "EC50": "< 1"}
{"smiles": "COC(=O)N[C@H](C(=O)N1CCC[C@H]1c1nc(-c2ccc3nc(-c4ccc(-c5cnc([C@@H]6CCCN6C(=O)[C@H](NC(=O)OC(C)(C)C)c6ccccc6)[nH]5)cc4)ccc3c2)c[nH]1)C(C)C", "note": "[compound 30]", "EC50": "< 1"}
{"smiles": "CNC(=O)N[C@@H](C(=O)N1CCC[C@H]1c1ncc(-c2ccc(-c3ccc4cc(-c5c[nH]c([C@@H]6CCCN6C(=O)[C@@H](NC(=O)OC)C(C)C)n5)ccc4n3)cc2)[nH]1)c1ccccc1", "note": "[compound 31]", "EC50": "< 1"}
{"smiles": "COC(=O)N[C@H](C(=O)N1CCC[C@H]1c1nc(-c2cnc3cc(-c4ccc(-c5cnc([C@@H]6CCCN6C(=O)[C@H](NC(=O)OC)c6ccccc6)[nH]5)cc4)ccc3c2)c[nH]1)C(C)C", "note": "[compound 32]", "EC50": "< 1"}
{"smiles": "CCNC(=O)N[C@@H](C(=O)N1CCC[C@H]1c1ncc(-c2ccc(-c3ccc4cc(-c5c[nH]c([C@@H]6CCCN6C(=O)[C@@H](NC(=O)OC)C(C)C)n5)ccc4n3)cc2)[nH]1)c1ccccc1", "note": "[compound 33]", "EC50": "< 1"}
{"smiles": "COC(=O)N[C@H](C(=O)N1CCC[C@H]1c1nc(-c2ccc3nc(-c4ccc(-c5cnc([C@@H]6CCCN6C(=O)[C@H](NC(=O)NC6CC6)c6ccccc6)[nH]5)cc4)ccc3c2)c[nH]1)C(C)C", "note": "[compound 34]", "EC50": "< 1"}
{"smiles": "COC(=O)N[C@H](C(=O)N1CCC[C@H]1c1ncc(-c2ccc(-c3ccc4cc(-c5c[nH]c([C@@H]6CCCN6C(=O)[C@H](NC(=O)OC(C)(C)C)c6ccccc6)n5)ccc4n3)cc2)[nH]1)C(C)C", "note": "[compound 35]", "EC50": "< 1"}
{"smiles": "CNC(=O)N[C@@H](C(=O)N1CCC[C@H]1c1nc(-c2ccc3nc(-c4ccc(-c5cnc([C@@H]6CCCN6C(=O)[C@@H](NC(=O)OC)C(C)C)[nH]5)cc4)ccc3c2)c[nH]1)c1ccccc1", "note": "[compound 36]", "EC50": "< 1"}
{"smiles": "CCNC(=O)N[C@@H](C(=O)N1CCC[C@H]1c1nc(-c2ccc3nc(-c4ccc(-c5cnc([C@@H]6CCCN6C(=O)[C@@H](NC(=O)OC)C(C)C)[nH]5)cc4)ccc3c2)c[nH]1)c1ccccc1", "note": "[compound 37]", "EC50": "< 1"}
{"smiles": "COC(=O)N[C@H](C(=O)N1CCC[C@H]1c1ncc(-c2ccc(-c3ccc4cc(-c5c[nH]c([C@@H]6CCCN6C(=O)[C@H](NC(=O)NC6CC6)c6ccccc6)n5)ccc4n3)cc2)[nH]1)C(C)C", "note": "[compound 38]", "EC50": "< 1"}
{"smiles": "COC(=O)N[C@H](C(=O)N1CCC[C@H]1c1ncc(-c2ccc(-c3ccc4cc(-c5c[nH]c([C@@H]6CCCN6C(=O)[C@@H](NC(=O)OC)C6CCOCC6)n5)ccc4n3)cc2)[nH]1)C(C)C", "note": "[compound 39]", "EC50": "< 1"}
